Where two headings read alike, the source gives them in different places.
What was measured:
EGFR (L858R/C797S) = EGFR (L858R/C797S) (Homo sapiens, UniProt P00533, C797S/L858R); experiment: MSA (Mobility Shift Assay) kinase activity, EGFR-L858R-C797S; assay type: biochemical
Experimental: (§1) The MSA (Mobility Shift Assay) method was used to detect the effects of small molecule inhibitors on the kinase activity of EGFR wild type and its mutants (EGFR^wt, EGFR-L858R, EGFR-L858R-T790M-C797S, EGFR-L858R-C797S).
(§2) 10 μL of kinase solution at 2.5 times the final concentration was added to the compound wells and positive control Max wells; 10 μL of 1x kinase buffer was added to the negative control Min wells. The mixture was centrifuged at 1000 rpm for 30 seconds, and the reaction plate was shaken to mix the solution well and then incubated at room temperature for 10 minutes. A mixed solution of ATP and kinase substrate at 5/3 times the final concentration was prepared in 1x kinase buffer. 15 μL of a mixed solution of ATP and substrate at 5/3 times the final concentration was added to initiate the reaction. The 384-well plate was centrifuged at 1000 rpm for 30 seconds, and shaken to mix the solution well and then incubated at room temperature for the corresponding time. 30 μL of stop detection solution was added to stop the kinase reaction, and the mixture was centrifuged at 1000 rpm for 30 seconds, and then to mixed well by shaking. The conversion rate was read using Caliper EZ Reader.
(§3) wherein: Conversion %_sample is the conversion rate reading of the sample; Conversion %_min is the mean of the negative control wells, representing the conversion rate reading of the wells without enzyme activity; Conversion %_max is the mean of the positive control wells, representing the conversion rate reading of the wells without compound inhibition.
(§4) The log (inhibitor) vs. response —Variable slope of the analysis software GraphPad Prism 5 was used to fit the dose-effect curve, where the log value of the concentration was used as the X-axis and the percentage inhibition rate was used as the Y-axis, to obtain the IC50 value of each compound on the enzyme activity.
(§5) The calculation formula is Y=Bottom+(Top-Bottom)/(1+10^((Log IC50−X)*Hill Slope))

EGFR (L858R/T790M/C797S) = EGFR (L858R/T790M/C797S) (Homo sapiens, UniProt P00533, C797S/L858R/T790M); experiment: MSA (Mobility Shift Assay) kinase activity, EGFR-L858R-T790M-C797S; assay type: biochemical
Experimental: as §1, §2, §3, §4, §5

EGFR (wild-type) = EGFR (wild-type) (Homo sapiens, UniProt P00533); experiment: MSA (Mobility Shift Assay) kinase activity, EGFR wild type; assay type: biochemical; settings: read-out: EGFR wt/ IC50/nM
Experimental: as §1, §2, §3, §4, §5

Ba/F3-FL-EGFR-L858R = Ba/F3-FL-EGFR-L858R (Homo sapiens, UniProt P00533, L858R, cells depend on it); experiment: CellTiter-Glo proliferation, Ba/F3-FL-EGFR-L858R; assay type: cell-based; settings: 72 hours, read-out: Ba/F3-FL-EGFR-L858R IC50/nM
Experimental: (§6) Promega CellTiter-Glo reagent was used to detect the effects of small molecule inhibitors on the proliferation of five Ba/F3 cell lines (Ba/F3-FL-EGFR, Ba/F3-FL-EGFR-L858R, Ba/F3-FL-EGFR-L858R-T790M-C797S, Ba/F3-TEL-EGFR-L858R-C797S and Ba/F3-FL-EGFR-del19-C797S).
(§7) The cell lines were cultured in an incubator at 37° C. and 5% CO2. Cells were passaged regularly and cells in the logarithmic phase were used for plating. 95 μL of cell suspension was added to each well of the cell plate, and culture medium without cells (containing 0.1% DMSO) was added to the Min control wells. Substance addition for compound detection cell plate: 5 μL of 20× compound working solution was added to the cell culture plate as shown in the table below. 50 μL of DMSO-cell culture medium mixture was added to the Max control, with the final DMSO concentration of 0.1%. 5 μL of DMSO-cell culture medium mixture was added to the Max control. The final DMSO concentration was 0.1%.
(§8) The compounds to be tested were added as per the table below
(§9) Cell viability was detected by CellTiter-Glo luminescence assay. Data analysis:
(§10) The cell proliferation inhibition rate (Inhibition Rate) data was processed using the following formula: […]
(§11) wherein: RLUDrug represents the relative luminescence unit of the cells with the addition of drug, RLUMin represents the luminescence unit of the culture medium, and RLUMax represents the relative luminescence unit of the cells with the addition of DMSO.
(§12) The inhibition rates corresponding to different concentrations of compounds were calculated in EXCEL, and then the inhibition rate curve was plotted using GraphPad Prism software and related parameters including the maximum and minimum inhibition rates of cells and IC50 values were calculated.

[1] = molecular target: Ba/F3-FL-EGFR-L858R-T790M-C797S (Homo sapiens, UniProt P00533, T790M/C797S/L858R, cells depend on it); experiment: CellTiter-Glo proliferation, Ba/F3-FL-EGFR-L858R-T790M-C797S; assay type: cell-based; settings: 72 hours, read-out: Ba/F3-FL-EGFR-L858R-T790M-C797S IC50/nM
Experimental: as §6, §7, §8, §9, §10, §11, §12

Ba/F3-FL-EGFR = molecular target: T1, Ba/F3-FL-EGFR (Homo sapiens, UniProt P00533); experiment: CellTiter-Glo proliferation, Ba/F3-FL-EGFR; assay type: cell-based; settings: 72 hours, read-out: Ba/F3-FL-EGFR IC50/nM
T1 construct: FL read as full length
Experimental: as §6, §7, §8, §9, §10, §11, §12

[2] = molecular target: T2, Ba/F3-TEL-EGFR-L858R-C797S (Homo sapiens, UniProt P00533, C797S/L858R, cells depend on it); experiment: CellTiter-Glo proliferation, Ba/F3-TEL-EGFR-L858R-C797S; assay type: cell-based; settings: 72 hours, read-out: Ba/F3-TEL-EGFR-L858R-C797S IC50/nM
T2 construct: fused on or other part: N-terminal TEL (ETV6) oligomerising part fused to the EGFR intracellular/kinase part; P41212 (Transcription factor ETV6)
Experimental: as §6, §7, §8, §9, §10, §11, §12

[3] = test system: Ba/F3-FL-EGFR-del19-C797S; experiment: CellTiter-Glo proliferation, Ba/F3-FL-EGFR-del19-C797S; assay type: cell-based; settings: proliferation, 72 hours, CellTiter-Glo, read-out: Ba/F3-FL-EGFR-del19-C797S IC50/nM
Experimental: as §6, §7, §8, §9, §10, §11, §12

Sequence of EGFR (L858R/T790M/C797S) (P00533 25-1210 T790M/C797S/L858R): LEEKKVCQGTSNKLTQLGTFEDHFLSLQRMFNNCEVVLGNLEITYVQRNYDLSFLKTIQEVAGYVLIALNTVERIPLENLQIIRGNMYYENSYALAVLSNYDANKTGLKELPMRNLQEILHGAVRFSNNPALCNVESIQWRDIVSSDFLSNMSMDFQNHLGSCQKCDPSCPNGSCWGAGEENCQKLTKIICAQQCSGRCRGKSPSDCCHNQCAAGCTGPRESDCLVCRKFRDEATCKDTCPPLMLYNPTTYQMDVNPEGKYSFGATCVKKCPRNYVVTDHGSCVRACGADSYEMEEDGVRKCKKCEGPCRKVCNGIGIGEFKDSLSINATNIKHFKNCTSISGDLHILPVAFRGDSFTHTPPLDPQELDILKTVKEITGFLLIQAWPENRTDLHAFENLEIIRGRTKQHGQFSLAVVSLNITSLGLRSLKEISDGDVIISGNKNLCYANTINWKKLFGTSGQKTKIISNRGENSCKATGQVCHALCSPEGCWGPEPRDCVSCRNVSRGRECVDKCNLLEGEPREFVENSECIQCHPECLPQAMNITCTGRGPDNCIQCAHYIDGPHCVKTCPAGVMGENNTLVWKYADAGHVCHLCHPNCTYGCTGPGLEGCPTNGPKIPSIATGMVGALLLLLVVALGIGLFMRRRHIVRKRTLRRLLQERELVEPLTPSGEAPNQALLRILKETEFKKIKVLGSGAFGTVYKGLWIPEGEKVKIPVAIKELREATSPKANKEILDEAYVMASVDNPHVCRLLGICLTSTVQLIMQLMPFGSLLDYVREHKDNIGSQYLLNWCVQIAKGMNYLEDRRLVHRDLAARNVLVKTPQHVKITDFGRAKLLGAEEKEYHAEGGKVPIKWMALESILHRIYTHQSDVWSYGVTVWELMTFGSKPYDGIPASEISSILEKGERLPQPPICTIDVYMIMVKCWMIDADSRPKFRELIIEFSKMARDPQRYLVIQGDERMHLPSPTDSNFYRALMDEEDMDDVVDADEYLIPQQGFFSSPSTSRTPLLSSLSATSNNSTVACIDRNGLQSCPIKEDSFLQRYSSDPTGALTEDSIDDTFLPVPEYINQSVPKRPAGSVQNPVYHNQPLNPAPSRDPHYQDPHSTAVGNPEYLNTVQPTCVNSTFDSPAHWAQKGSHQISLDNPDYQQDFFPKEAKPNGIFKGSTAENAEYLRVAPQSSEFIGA
Sequence of EGFR (wild-type) (P00533 25-1210): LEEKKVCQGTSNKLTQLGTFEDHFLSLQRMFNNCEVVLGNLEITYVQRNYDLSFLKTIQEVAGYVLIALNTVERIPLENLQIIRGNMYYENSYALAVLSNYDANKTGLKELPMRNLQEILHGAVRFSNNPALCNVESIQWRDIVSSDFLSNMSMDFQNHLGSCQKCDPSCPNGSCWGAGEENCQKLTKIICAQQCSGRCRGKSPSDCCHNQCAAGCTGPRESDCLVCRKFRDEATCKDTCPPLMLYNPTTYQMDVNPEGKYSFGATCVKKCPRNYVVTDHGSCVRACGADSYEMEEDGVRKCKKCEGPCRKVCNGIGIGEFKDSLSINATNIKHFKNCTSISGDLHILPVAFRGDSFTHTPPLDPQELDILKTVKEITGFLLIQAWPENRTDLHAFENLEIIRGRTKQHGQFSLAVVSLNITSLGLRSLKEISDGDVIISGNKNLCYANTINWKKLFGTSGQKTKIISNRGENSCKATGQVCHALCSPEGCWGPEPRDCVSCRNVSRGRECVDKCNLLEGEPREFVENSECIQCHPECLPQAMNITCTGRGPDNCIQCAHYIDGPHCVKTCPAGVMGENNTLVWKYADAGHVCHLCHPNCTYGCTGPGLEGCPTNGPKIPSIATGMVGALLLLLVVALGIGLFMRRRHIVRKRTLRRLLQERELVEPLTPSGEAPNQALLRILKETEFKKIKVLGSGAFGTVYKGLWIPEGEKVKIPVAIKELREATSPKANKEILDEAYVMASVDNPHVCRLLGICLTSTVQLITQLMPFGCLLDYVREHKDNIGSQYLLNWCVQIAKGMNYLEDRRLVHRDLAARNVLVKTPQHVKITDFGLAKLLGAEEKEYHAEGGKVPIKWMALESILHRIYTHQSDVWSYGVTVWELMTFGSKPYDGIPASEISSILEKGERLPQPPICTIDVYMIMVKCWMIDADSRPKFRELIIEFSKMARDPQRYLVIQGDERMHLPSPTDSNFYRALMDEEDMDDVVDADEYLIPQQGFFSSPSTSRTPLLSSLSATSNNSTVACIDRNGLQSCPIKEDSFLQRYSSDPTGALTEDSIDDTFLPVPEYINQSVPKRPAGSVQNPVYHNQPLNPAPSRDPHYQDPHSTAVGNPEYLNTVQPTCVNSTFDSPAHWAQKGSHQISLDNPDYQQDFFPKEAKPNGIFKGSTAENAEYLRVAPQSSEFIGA
Sequence of EGFR (L858R/C797S) (P00533 25-1210 C797S/L858R): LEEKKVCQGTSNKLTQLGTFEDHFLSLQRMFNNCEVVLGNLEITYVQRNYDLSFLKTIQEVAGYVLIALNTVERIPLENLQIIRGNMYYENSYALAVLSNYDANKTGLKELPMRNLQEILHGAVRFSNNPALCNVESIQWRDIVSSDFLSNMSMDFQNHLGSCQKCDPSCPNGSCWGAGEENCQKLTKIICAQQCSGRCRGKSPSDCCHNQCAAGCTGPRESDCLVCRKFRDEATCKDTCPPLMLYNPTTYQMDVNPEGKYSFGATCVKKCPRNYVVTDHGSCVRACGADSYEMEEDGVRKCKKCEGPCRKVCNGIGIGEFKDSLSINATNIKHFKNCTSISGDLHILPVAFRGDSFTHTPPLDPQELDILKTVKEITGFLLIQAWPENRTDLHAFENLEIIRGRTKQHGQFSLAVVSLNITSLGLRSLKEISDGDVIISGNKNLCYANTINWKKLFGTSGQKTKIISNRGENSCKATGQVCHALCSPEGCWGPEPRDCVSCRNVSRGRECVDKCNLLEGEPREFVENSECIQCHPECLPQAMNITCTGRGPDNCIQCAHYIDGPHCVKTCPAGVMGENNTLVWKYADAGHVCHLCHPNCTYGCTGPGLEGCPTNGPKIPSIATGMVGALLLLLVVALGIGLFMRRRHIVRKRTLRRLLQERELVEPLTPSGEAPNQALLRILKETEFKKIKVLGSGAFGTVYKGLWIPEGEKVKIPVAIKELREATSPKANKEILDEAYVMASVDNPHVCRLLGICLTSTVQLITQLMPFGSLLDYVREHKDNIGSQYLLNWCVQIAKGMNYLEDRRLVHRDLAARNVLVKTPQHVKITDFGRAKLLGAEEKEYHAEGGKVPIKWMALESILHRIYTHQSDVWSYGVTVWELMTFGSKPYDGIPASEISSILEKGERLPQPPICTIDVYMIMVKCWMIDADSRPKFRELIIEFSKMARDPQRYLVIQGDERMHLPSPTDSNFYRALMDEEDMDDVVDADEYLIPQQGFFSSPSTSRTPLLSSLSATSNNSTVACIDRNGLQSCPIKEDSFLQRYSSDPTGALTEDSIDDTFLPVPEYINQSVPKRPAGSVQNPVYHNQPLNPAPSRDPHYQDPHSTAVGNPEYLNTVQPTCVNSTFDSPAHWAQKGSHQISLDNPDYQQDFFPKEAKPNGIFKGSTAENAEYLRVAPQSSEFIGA
T2 sequence (P00533 whole entry C797S/L858R, the tested form may be a part): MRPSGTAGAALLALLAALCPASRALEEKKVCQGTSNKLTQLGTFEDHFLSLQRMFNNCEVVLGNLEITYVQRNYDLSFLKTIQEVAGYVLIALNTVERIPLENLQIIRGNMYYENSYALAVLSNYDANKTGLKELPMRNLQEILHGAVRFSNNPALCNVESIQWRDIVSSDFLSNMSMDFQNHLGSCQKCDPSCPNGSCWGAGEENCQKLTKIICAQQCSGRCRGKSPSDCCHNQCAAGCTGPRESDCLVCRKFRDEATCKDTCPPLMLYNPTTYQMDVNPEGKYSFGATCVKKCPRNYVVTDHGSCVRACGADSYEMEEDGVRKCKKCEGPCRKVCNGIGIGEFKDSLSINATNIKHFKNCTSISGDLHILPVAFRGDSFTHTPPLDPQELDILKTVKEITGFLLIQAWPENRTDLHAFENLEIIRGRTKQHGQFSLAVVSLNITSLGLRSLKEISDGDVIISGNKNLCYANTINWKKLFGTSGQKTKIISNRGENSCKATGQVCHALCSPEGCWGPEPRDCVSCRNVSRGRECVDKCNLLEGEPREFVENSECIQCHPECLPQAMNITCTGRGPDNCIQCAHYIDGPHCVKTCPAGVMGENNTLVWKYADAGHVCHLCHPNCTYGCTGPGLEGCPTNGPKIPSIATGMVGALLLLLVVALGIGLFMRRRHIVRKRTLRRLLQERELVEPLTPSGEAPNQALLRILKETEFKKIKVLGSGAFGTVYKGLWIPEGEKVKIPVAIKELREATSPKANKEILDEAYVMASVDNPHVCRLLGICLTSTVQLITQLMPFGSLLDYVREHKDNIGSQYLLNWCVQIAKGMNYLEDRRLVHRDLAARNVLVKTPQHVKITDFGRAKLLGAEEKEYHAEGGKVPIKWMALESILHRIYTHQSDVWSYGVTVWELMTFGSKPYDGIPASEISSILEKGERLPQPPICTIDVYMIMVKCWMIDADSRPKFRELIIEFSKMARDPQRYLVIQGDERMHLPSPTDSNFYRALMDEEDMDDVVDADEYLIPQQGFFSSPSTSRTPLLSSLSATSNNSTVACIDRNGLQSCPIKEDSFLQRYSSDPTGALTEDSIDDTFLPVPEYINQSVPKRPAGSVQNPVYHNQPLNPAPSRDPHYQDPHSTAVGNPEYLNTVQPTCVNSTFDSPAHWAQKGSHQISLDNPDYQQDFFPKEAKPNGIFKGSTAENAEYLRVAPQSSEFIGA

IC50 (EGFR (L858R/C797S)) | IC50 (EGFR (L858R/T790M/C797S)) | IC50 (EGFR (wild-type)) | GI50 (Ba/F3-FL-EGFR-L858R) | GI50 [1] | GI50 (Ba/F3-FL-EGFR) | GI50 [2] | IC50 ([3]; 72 h) | IC50 [3] | Structure (SMILES)
> 100 nM | 9.9 nM | > 100 nM | – | – | – | – | – | – | CC(C)c1ccc(N2CC(c3cscn3)C2)c2cnc(Nc3ccnc(N4CCC(O)C(F)C4)n3)cc12 (stereo not drawn) [Compound P18]
6.4 nM | 3.5 nM | > 100 nM | – | – | – | – | – | – | CC(C)c1ccc(N2CC(CS(C)(=O)=O)C2)c2cnc(Nc3ccnc(-c4cnn(S(=O)(=O)C(F)(F)F)c4)n3)cc12 [Compound H8]
– | – | – | 2520 nM | 1660 nM | 8760 nM | 1690 nM | 3120 nM | – | CC(=O)NC1CN(c2ccc(C(C)C)c3cc(Nc4ccnc(N5CCC(O)C(F)C5)n4)ncc23)C1 (stereo not drawn) [Compound P35]
– | – | – | 20 nM | 2.5 nM | 421 nM | 5.8 nM | 53 nM | – | CO[C@@H]1CCN(c2nccc(Nc3cc4c(C(C)C)ccc(N5C[C@H](N(C)S(C)(=O)=O)[C@H]5C)c4cn3)n2)C[C@@H]1F [Compound P40a]
– | – | – | 65 nM | 73 nM | 656 nM | 28 nM | 37 nM | – | CCCS(=O)(=O)C[C@H]1CN(c2ccc(C(C)C)c3cc(Nc4ccnc(-c5cnn(S(=O)(=O)C6CC6)c5)n4)ncc23)[C@@H]1C [Compound H34]
– | – | – | 16 nM | 5.8 nM | 761 nM | 6.6 nM | 90 nM | – | [2H]C([2H])([2H])N([C@H]1CN(c2ccc(C(C)C)c3cc(Nc4ccnc(N5CCC(OC)C(F)C5)n4)ncc23)[C@@H]1C)S(C)(=O)=O (stereo partly drawn) [Compound P42]
– | – | – | 169 nM | 64 nM | 2200 nM | 74 nM | 226 nM | – | CC(C)c1ccc(N2CC(NS(=O)(=O)N(C)C)C2)c2cnc(Nc3ccnc(N4CCC(O)C(F)C4)n3)cc12 (stereo not drawn) [Compound P27]
– | – | – | 76 nM | 31 nM | 1170 nM | 29 nM | 144 nM | – | CCCS(=O)(=O)NC1CN(c2ccc(C(C)C)c3cc(Nc4ccnc(N5CCC(O)C(F)C5)n4)ncc23)C1 (stereo not drawn) [Compound P48]
– | – | – | 15 nM | 5.4 nM | 540 nM | 7 nM | 76 nM | – | COC1CCN(c2nccc(Nc3cc4c(C(C)C)ccc(N5C[C@H](NS(C)(=O)=O)[C@H]5C)c4cn3)n2)CC1F (stereo partly drawn) [Compound P38]
– | – | – | 33 nM | 14 nM | 1090 nM | 8.3 nM | 159 nM | – | COC1CCN(c2nccc(Nc3cc4c(C(C)C)ccc(N5CC(N(C)S(C)(=O)=O)C5)c4cn3)n2)CC1F (stereo not drawn) [Compound P36]
– | – | – | 86 nM | 18 nM | 1460 nM | 19 nM | 295 nM | – | CCN(C1CN(c2ccc(C(C)C)c3cc(Nc4ccnc(N5CCC(OC)C(F)C5)n4)ncc23)C1)S(C)(=O)=O (stereo not drawn) [Compound P31]
– | – | – | 50 nM | 64 nM | 503 nM | 55 nM | 39 nM | – | CC(C)c1ccc(N2C[C@H](CS(C)(=O)=O)[C@H]2C)c2cnc(Nc3ccnc(-c4cnn(S(=O)(=O)CCOC5CC5)c4)n3)cc12 [Compound H31]
– | – | – | 14 nM | 13 nM | 202 nM | 5.9 nM | 7.1 nM | – | CCCS(=O)(=O)N(C)[C@H]1CN(c2ccc(C(C)C)c3cc(Nc4ccnc(-c5cnn(S(=O)(=O)C6CC6)c5)n4)ncc23)[C@@H]1C [Compound H33]
12 nM | 6.3 nM | > 100 nM | – | – | – | – | – | – | CC(C)c1ccc(N2CC(CS(C)(=O)=O)C2)c2cnc(Nc3ccnc(-c4cnn(S(=O)(=O)C5CCCCC5)c4)n3)cc12 [Compound H9]
– | – | – | 235 nM | 652 nM | 1360 nM | 122 nM | 264 nM | – | CC(C)c1ccc(N2CC(CS(C)(=O)=O)C2)c2cnc(Nc3ccnc(-c4cnn(S(=O)(=O)c5ccccn5)c4)n3)cc12 [Compound H16]
– | – | – | 43 nM | 188 nM | 2110 nM | 22 nM | – | 53 nM | COCCS(=O)(=O)n1cc(-c2nccc(Nc3cc4c(C(C)C)ccc(N5CC(CS(C)(=O)=O)C5)c4cn3)n2)cn1 [Compound H20]
– | – | – | 74 nM | 336 nM | 1420 nM | 56 nM | 128 nM | – | CC(C)c1ccc(N2CC(CS(C)(=O)=O)C2)c2cnc(Nc3ccnc(-c4cnn(CC#N)c4)n3)cc12 [Compound H26]
– | – | – | 91 nM | 235 nM | 739 nM | 34 nM | 59 nM | – | CC(C)c1ccc(N2CC(CS(C)(=O)=O)C2)c2cnc(Nc3ccnc(-c4cnn(C)c4)n3)cc12 [Compound H29]
– | – | – | 2.9 nM | 4.4 nM | 76 nM | 1.8 nM | 4.3 nM | – | COCCS(=O)(=O)n1cc(-c2nccc(Nc3cc4c(C(C)C)ccc(N5C[C@H](CS(C)(=O)=O)[C@H]5C)c4cn3)n2)cn1 [Compound H21]
– | – | – | 510 nM | 397 nM | 3290 nM | 226 nM | 340 nM | – | CC(C)OCCS(=O)(=O)n1cc(-c2nccc(Nc3cc4c(C(C)C)ccc(N5C[C@H](CS(C)(=O)=O)[C@H]5C)c4cn3)n2)cn1 [Compound H32]
– | – | – | 121 nM | 38 nM | 1070 nM | 36 nM | 316 nM | – | COCCS(=O)(=O)N(C)C1CN(c2ccc(C(C)C)c3cc(Nc4ccnc(N5CCC(OC)C(F)C5)n4)ncc23)C1 (stereo not drawn) [Compound P49]
– | – | – | 5.7 nM | 8.6 nM | 148 nM | 4.3 nM | – | 6.6 nM | COCCS(=O)(=O)n1cc(-c2nccc(Nc3cc4c(C(C)C)ccc(N5CC(CS(C)(=O)=O)C5)c4cn3)n2)cn1 [Compound H15]
– | – | – | 17 nM | 14 nM | 229 nM | 13 nM | 14 nM | – | CCOCCS(=O)(=O)n1cc(-c2nccc(Nc3cc4c(C(C)C)ccc(N5C[C@H](CS(C)(=O)=O)[C@H]5C)c4cn3)n2)cn1 [Compound H22]
– | – | – | 113 nM | 42 nM | 1610 nM | 38 nM | 179 nM | – | CCS(=O)(=O)NC1CN(c2ccc(C(C)C)c3cc(Nc4ccnc(N5CCC(O)C(F)C5)n4)ncc23)C1 (stereo not drawn) [Compound P47]
24.1 nM | 0.28 nM | > 100 nM | – | – | – | – | – | – | CC(C)c1cc(C#N)c(N2CC(CS(C)(=O)=O)C2)c2cnc(Nc3ccnc(N4CCC(O)C(F)C4)n3)cc12 (stereo not drawn) [Compound P16]
